Results taken from article PMC5218480 (PLoS ONE, 2017).

Test system: MV-4-11 cells
Assay: Gene expression microarray analysis (Affymetrix PrimeView) and GSEA
Type: cell-based, human
Parameters: RFU PODN (11730768_x_at) / Fold change /veh PODN (11730768_x_at) / RFU LINC00158 (11744669_a_at) / Fold change /veh LINC00158 (11744669_a_at) / RFU DUSP10 (11751237_a_at) / Fold change /veh DUSP10 (11751237_a_at) / RFU ID3 (11757404_x_at) / Fold change /veh ID3 (11757404_x_at) / RFU PLEKHG5 (11737974_s_at) / Fold change /veh PLEKHG5 (11737974_s_at) / RFU LRRC4B (11730491_at) / Fold change /veh LRRC4B (11730491_at) / RFU GIMAP4 (11747438_a_at) / Fold change /veh GIMAP4 (11747438_a_at) / RFU KRT8 (11758183_x_at) / Fold change /veh KRT8 (11758183_x_at) / RFU CNN1 (11734310_a_at) / Fold change /veh CNN1 (11734310_a_at) / RFU VPS37D (11726825_at) / Fold change /veh VPS37D (11726825_at) / RFU C10orf10 (11716522_x_at) / Fold change /veh C10orf10 (11716522_x_at) / RFU KIR2DL2 /// KIR2DL4 /// KIR2DL5A /// KIR2DL5B /// KIR2DS1 /// KIR2DS2 /// KIR2DS3 /// KIR2DS4 /// KIR3DL3 /// KIR3DL3 /// KIR3DS1 (11738374_at) / Fold change /veh KIR2DL2 /// KIR2DL4 /// KIR2DL5A /// KIR2DL5B /// KIR2DS1 /// KIR2DS2 /// KIR2DS3 /// KIR2DS4 /// KIR3DL3 /// KIR3DL3 /// KIR3DS1 (11738374_at) / RFU C1QL1 (11718748_at) / Fold change /veh C1QL1 (11718748_at) / RFU TMPRSS4 (11747572_a_at) / Fold change /veh TMPRSS4 (11747572_a_at) / RFU HAMP (11756126_x_at) / Fold change /veh HAMP (11756126_x_at) / RFU RNFT2 (11725882_a_at) / Fold change /veh RNFT2 (11725882_a_at) / RFU NR4A2 (11747474_a_at) / Fold change /veh NR4A2 (11747474_a_at) / RFU ABCC12 (11746883_a_at) / Fold change /veh ABCC12 (11746883_a_at) / RFU TMEM136 (11760407_x_at) / Fold change /veh TMEM136 (11760407_x_at) / RFU CLDN22 /// WWC2 (11732394_at) / Fold change /veh CLDN22 /// WWC2 (11732394_at) / RFU HLA-DPB1 (11760878_x_at) / Fold change /veh HLA-DPB1 (11760878_x_at) / RFU SPINT1 (11716480_a_at) / Fold change /veh SPINT1 (11716480_a_at) / RFU GAP43 (11754022_s_at) / Fold change /veh GAP43 (11754022_s_at) / RFU A4GNT (11735810_at) / Fold change /veh A4GNT (11735810_at) / RFU PRB3 (11715151_x_at) / Fold change /veh PRB3 (11715151_x_at) / RFU TUBB4B (11761932_at) / Fold change /veh TUBB4B (11761932_at) / RFU CAPN14 (11732068_a_at) / Fold change /veh CAPN14 (11732068_a_at) / RFU TMCC2 (11721928_a_at) / Fold change /veh TMCC2 (11721928_a_at) / RFU IRGQ (11745062_a_at) / Fold change /veh IRGQ (11745062_a_at) / RFU FAM174B (11720279_a_at) / Fold change /veh FAM174B (11720279_a_at) / RFU TMPRSS4 (11748680_a_at) / Fold change /veh TMPRSS4 (11748680_a_at) / RFU FAM212B (11763350_a_at) / Fold change /veh FAM212B (11763350_a_at) / RFU PLEKHG5 (11743358_a_at) / Fold change /veh PLEKHG5 (11743358_a_at) / RFU ZSCAN30 (11745921_a_at) / Fold change /veh ZSCAN30 (11745921_a_at) / RFU CMKLR1 (11741424_a_at) / Fold change /veh CMKLR1 (11741424_a_at) / RFU LOC101060620 /// MAPK8IP1 (11723275_at) / Fold change /veh LOC101060620 /// MAPK8IP1 (11723275_at) / RFU SPTSSB (11747773_x_at) / Fold change /veh SPTSSB (11747773_x_at) / RFU PRSS12 (11739890_at) / Fold change /veh PRSS12 (11739890_at) / RFU BIN1 (11741810_x_at) / Fold change /veh BIN1 (11741810_x_at) / RFU WNT11 (11732464_a_at) / Fold change /veh WNT11 (11732464_a_at) / RFU C10orf10 (11716521_a_at) / Fold change /veh C10orf10 (11716521_a_at) / RFU C5orf56 (11738089_at) / Fold change /veh C5orf56 (11738089_at) / RFU CYB561 (11721691_x_at) / Fold change /veh CYB561 (11721691_x_at) / RFU ANKRD19P (11752326_a_at) / Fold change /veh ANKRD19P (11752326_a_at) / RFU OR2T12 /// OR2T33 /// OR2T8 (11738714_s_at) / Fold change /veh OR2T12 /// OR2T33 /// OR2T8 (11738714_s_at) / RFU VCAN (11748164_a_at) / Fold change /veh VCAN (11748164_a_at) / RFU JSRP1 (11732532_at) / Fold change /veh JSRP1 (11732532_at) / RFU KRTAP10-11 (11738290_x_at) / Fold change /veh KRTAP10-11 (11738290_x_at) / RFU MYO3A (11730013_a_at) / Fold change /veh MYO3A (11730013_a_at) / RFU EBF3 (11725865_a_at) / Fold change /veh EBF3 (11725865_a_at) / RFU CAMK2N1 (11719241_x_at) / Fold change /veh CAMK2N1 (11719241_x_at) / RFU C5orf56 (11738088_a_at) / Fold change /veh C5orf56 (11738088_a_at) / RFU OLFML3 (11715873_a_at) / Fold change /veh OLFML3 (11715873_a_at) / RFU LOC100653217 /// NTM (11731650_a_at) / Fold change /veh LOC100653217 /// NTM (11731650_a_at) / RFU MAPK11 (11762145_a_at) / Fold change /veh MAPK11 (11762145_a_at) / RFU FIZ1 (11724087_x_at) / Fold change /veh FIZ1 (11724087_x_at) / RFU OASL (11726364_x_at) / Fold change /veh OASL (11726364_x_at) / RFU SOX15 (11748057_x_at) / Fold change /veh SOX15 (11748057_x_at) / RFU CD79A (11719716_a_at) / Fold change /veh CD79A (11719716_a_at) / RFU HIST1H1D (11736915_at) / Fold change /veh HIST1H1D (11736915_at) / RFU CASKIN2 (11723855_a_at) / Fold change /veh CASKIN2 (11723855_a_at) / RFU LOC730098 (11760151_x_at) / Fold change /veh LOC730098 (11760151_x_at) / RFU OR4N2 (11742367_at) / Fold change /veh OR4N2 (11742367_at) / RFU PRRT2 (11749266_a_at) / Fold change /veh PRRT2 (11749266_a_at) / RFU SNX32 (11753110_a_at) / Fold change /veh SNX32 (11753110_a_at) / RFU CDHR5 (11726645_a_at) / Fold change /veh CDHR5 (11726645_a_at) / RFU RCAN1 (11760418_a_at) / Fold change /veh RCAN1 (11760418_a_at) / RFU FAM167A (11723789_a_at) / Fold change /veh FAM167A (11723789_a_at) / RFU FAM26E (11764081_at) / Fold change /veh FAM26E (11764081_at) / RFU ISYNA1 (11749810_s_at) / Fold change /veh ISYNA1 (11749810_s_at) / RFU ACY1 (11761880_at) / Fold change /veh ACY1 (11761880_at) / RFU 11764098_at / Fold change /veh 11764098_at / RFU SAMD14 (11745864_x_at) / Fold change /veh SAMD14 (11745864_x_at) / RFU NPB (11741838_a_at) / Fold change /veh NPB (11741838_a_at) / RFU TMPRSS6 (11731388_a_at) / Fold change /veh TMPRSS6 (11731388_a_at) / RFU KRTAP10-2 (11738614_at) / Fold change /veh KRTAP10-2 (11738614_at) / RFU ARHGAP8 /// PRR5-ARHGAP8 (11727945_x_at) / Fold change /veh ARHGAP8 /// PRR5-ARHGAP8 (11727945_x_at) / RFU KRTAP5-7 /// NADSYN1 (11734609_at) / Fold change /veh KRTAP5-7 /// NADSYN1 (11734609_at) / RFU RASL12 (11751679_a_at) / Fold change /veh RASL12 (11751679_a_at) / RFU CDKN2B (11736163_a_at) / Fold change /veh CDKN2B (11736163_a_at) / RFU PRF1 (11729649_at) / Fold change /veh PRF1 (11729649_at) / RFU, ZNF638 /// ZNF638-IT1 / Fold change vs veh, ZNF638 /// ZNF638-IT1 / RFU, PANK3 / Fold change vs veh, PANK3 / RFU, SH3YL1 / Fold change vs veh, SH3YL1 / RFU, ZEB2 / Fold change vs veh, ZEB2 / RFU, NRIP1 / Fold change vs veh, NRIP1 / RFU, PTTG1IP / Fold change vs veh, PTTG1IP / RFU, CAPN2 / Fold change vs veh, CAPN2 / RFU, MED14 / Fold change vs veh, MED14 / RFU, SNORA58 / Fold change vs veh, SNORA58 / RFU, C1orf63 / Fold change vs veh, C1orf63 / RFU, LRRFIP1 / Fold change vs veh, LRRFIP1 / RFU, NDUFAF7 / Fold change vs veh, NDUFAF7 / RFU, SLC12A2 / Fold change vs veh, SLC12A2 / RFU, IBTK / Fold change vs veh, IBTK / RFU, ESF1 / Fold change vs veh, ESF1 / Fold change vs veh, TMEM50B / RFU, TAOK1 / Fold change vs veh, TAOK1 / RFU, ACBD3 / Fold change vs veh, ACBD3 / RFU, TMA16 / Fold change vs veh, TMA16 / RFU, RWDD3 / Fold change vs veh, RWDD3 / RFU, BCAT1 / Fold change vs veh, BCAT1 / RFU, EDEM3 / Fold change vs veh, EDEM3 / RFU, TMEM33 / Fold change vs veh, TMEM33 / RFU, WDR75 / Fold change vs veh, WDR75 / RFU, AHCTF1 / Fold change vs veh, AHCTF1 / RFU, TFRC / Fold change vs veh, TFRC / RFU, ZDHHC17 / Fold change vs veh, ZDHHC17 / RFU, NOM1 / Fold change vs veh, NOM1 / RFU, ARL8B / Fold change vs veh, ARL8B / RFU, ZBTB11 / Fold change vs veh, ZBTB11 / RFU, TAMM41 / Fold change vs veh, TAMM41 / RFU, KIAA1704 /// LOC100996395 / Fold change vs veh, KIAA1704 /// LOC100996395 / RFU, ING1 / Fold change vs veh, ING1 / RFU, TRMT61B / Fold change vs veh, TRMT61B / RFU, FUBP3 / Fold change vs veh, FUBP3 / RFU, TP53 / Fold change vs veh, TP53 / RFU, TNKS2 / Fold change vs veh, TNKS2 / RFU, ZFP14 / Fold change vs veh, ZFP14 / RFU, ACTR2 / Fold change vs veh, ACTR2 / RFU, PPP3R1 / Fold change vs veh, PPP3R1 / RFU, PIK3R1 / Fold change vs veh, PIK3R1 / RFU, HNRNPA1 / Fold change vs veh, HNRNPA1 / RFU, RNF170 / Fold change vs veh, RNF170 / RFU, ZNF28 / Fold change vs veh, ZNF28 / RFU, RNGTT / Fold change vs veh, RNGTT / RFU, OGT / Fold change vs veh, OGT / RFU, BRD1 / Fold change vs veh, BRD1 / RFU, MARS / Fold change vs veh, MARS / RFU, ZNF655 / Fold change vs veh, ZNF655 / RFU, FAHD1 / Fold change vs veh, FAHD1 / RFU, BDP1 / Fold change vs veh, BDP1 / RFU, LRRCC1 / Fold change vs veh, LRRCC1 / RFU, ARID1A / Fold change vs veh, ARID1A / RFU, ZNF146 / Fold change vs veh, ZNF146 / RFU, ZNF330 / Fold change vs veh, ZNF330 / RFU, GPN3 / Fold change vs veh, GPN3 / RFU, C9orf123 / Fold change vs veh, C9orf123 / RFU, N4BP2L2 / Fold change vs veh, N4BP2L2 / RFU, ARFIP1 / Fold change vs veh, ARFIP1 / RFU, FAM179B / Fold change vs veh, FAM179B / RFU, BCL10 / Fold change vs veh, BCL10 / RFU, UHRF1BP1L / Fold change vs veh, UHRF1BP1L / RFU, BET1 / Fold change vs veh, BET1 / RFU, CNOT2 / Fold change vs veh, CNOT2 / RFU, ZNF268 / Fold change vs veh, ZNF268 / Fold change vs veh, ZNF507 / RFU, DGCR2 / Fold change vs veh, DGCR2 / RFU, WDSUB1 / Fold change vs veh, WDSUB1 / Fold change vs veh, HSP90B1 /// MIR3652 / RFU, ADSS / Fold change vs veh, ADSS / RFU, GK / Fold change vs veh, GK / RFU, ZNF148 / Fold change vs veh, ZNF148 / RFU, TAF9 / Fold change vs veh, TAF9 / RFU, SLC1A5 / Fold change vs veh, SLC1A5 / RFU, SLMO2 / Fold change vs veh, SLMO2 / RFU, ABCC4 / Fold change vs veh, ABCC4 / RFU, LOC101060439 /// RAP1B / Fold change vs veh, LOC101060439 /// RAP1B / RFU, RFX7 / Fold change vs veh, RFX7 / RFU, GTPBP10 / Fold change vs veh, GTPBP10 / RFU, CNEP1R1 / Fold change vs veh, CNEP1R1 / RFU, BIVM-ERCC5 /// ERCC5 / Fold change vs veh, BIVM-ERCC5 /// ERCC5 / RFU, ILF3 / Fold change vs veh, ILF3 / RFU 11762660_at / Fold change /veh 11762660_at / RFU VCAN (11757783_s_at) / Fold change /veh VCAN (11757783_s_at) / RFU DDX43 (11728927_at) / Fold change /veh DDX43 (11728927_at) / RFU KRT8 (11758188_x_at) / Fold change /veh KRT8 (11758188_x_at) / RFU NKD1 (11759106_at) / Fold change /veh NKD1 (11759106_at) / RFU SRD5A1 (11742802_a_at) / Fold change /veh SRD5A1 (11742802_a_at) / RFU TPSAB1 /// TPSB2 (11721975_s_at) / Fold change /veh TPSAB1 /// TPSB2 (11721975_s_at) / RFU GSTM3 (11746129_a_at) / Fold change /veh GSTM3 (11746129_a_at) / RFU IL23R (11737362_x_at) / Fold change /veh IL23R (11737362_x_at) / RFU TMEM51 (11727254_a_at) / Fold change /veh TMEM51 (11727254_a_at) / RFU PIWIL2 (11732686_x_at) / Fold change /veh PIWIL2 (11732686_x_at) / RFU ORM1 (11744905_x_at) / Fold change /veh ORM1 (11744905_x_at) / RFU CCDC152 (11743942_at) / Fold change /veh CCDC152 (11743942_at) / RFU ECM1 (11717891_a_at) / Fold change /veh ECM1 (11717891_a_at) / RFU IL23R (11748794_a_at) / Fold change /veh IL23R (11748794_a_at) / RFU TNFAIP8L3 (11732012_x_at) / Fold change /veh TNFAIP8L3 (11732012_x_at) / RFU MBOAT4 (11741988_at) / Fold change /veh MBOAT4 (11741988_at) / RFU 11764193_at / Fold change /veh 11764193_at / RFU TMEM53 (11763286_at) / Fold change /veh TMEM53 (11763286_at) / RFU MAGEB2 (11727129_at) / Fold change /veh MAGEB2 (11727129_at) / RFU TMEM200A (11744735_a_at) / Fold change /veh TMEM200A (11744735_a_at) / RFU CCDC152 (11751479_a_at) / Fold change /veh CCDC152 (11751479_a_at) / RFU FAM211A (11726209_a_at) / Fold change /veh FAM211A (11726209_a_at) / RFU RGS16 (11746705_a_at) / Fold change /veh RGS16 (11746705_a_at) / RFU VCAN (11755009_s_at) / Fold change /veh VCAN (11755009_s_at) / RFU RHOB (11743442_s_at) / Fold change /veh RHOB (11743442_s_at) / RFU RGS16 (11720943_a_at) / Fold change /veh RGS16 (11720943_a_at) / RFU RGS16 (11720944_at) / Fold change /veh RGS16 (11720944_at) / RFU, VPS4B / Fold change vs veh, VPS4B / RFU, CREB1 / Fold change vs veh, CREB1 / RFU, DNAJC13 / Fold change vs veh, DNAJC13 / RFU, GNAQ / Fold change vs veh, GNAQ / RFU, CDK5R1 / Fold change vs veh, CDK5R1 / RFU, ZRANB3 / Fold change vs veh, ZRANB3 / RFU, CUL4A / Fold change vs veh, CUL4A / RFU, CCNY / Fold change vs veh, CCNY / RFU, UFL1 / Fold change vs veh, UFL1 / RFU, COG3 / Fold change vs veh, COG3 / RFU, DIAPH2 / Fold change vs veh, DIAPH2 / RFU, SKA2 / Fold change vs veh, SKA2 / RFU, AFF3 / Fold change vs veh, AFF3 / RFU, LMF1 / Fold change vs veh, LMF1 / RFU, IPO11 / Fold change vs veh, IPO11 / RFU, DFFB / Fold change vs veh, DFFB / RFU, FOXP1 / Fold change vs veh, FOXP1 / RFU, CARD8 / Fold change vs veh, CARD8 / RFU, STRN3 / Fold change vs veh, STRN3 / RFU, ADK / Fold change vs veh, ADK / RFU, RASSF2 / Fold change vs veh, RASSF2 / RFU, WIPF1 / Fold change vs veh, WIPF1 / RFU, LARP1B / Fold change vs veh, LARP1B / RFU, RASA1 / Fold change vs veh, RASA1 / RFU, RB1 / Fold change vs veh, RB1 / RFU, PPFIA1 / Fold change vs veh, PPFIA1 / RFU, MAT2A / Fold change vs veh, MAT2A / RFU, CCT5 / Fold change vs veh, CCT5 / RFU, WDR92 / Fold change vs veh, WDR92 / RFU, CUX1 / Fold change vs veh, CUX1 / RFU, TTC7A / Fold change vs veh, TTC7A / RFU, TMEM135 / Fold change vs veh, TMEM135 / RFU, DEPTOR / Fold change vs veh, DEPTOR / RFU, CPM / Fold change vs veh, CPM / RFU, DNAJB6 / Fold change vs veh, DNAJB6 / RFU, CACNA2D3 / Fold change vs veh, CACNA2D3 / RFU, DTX4 / Fold change vs veh, DTX4 / RFU, TFCP2 / Fold change vs veh, TFCP2 / RFU, GMCL1 /// GMCL1P1 / Fold change vs veh, GMCL1 /// GMCL1P1 / RFU, AEBP2 / Fold change vs veh, AEBP2 / RFU, SNHG1 /// SNORD22 /// SNORD25 /// SNORD26 /// SNORD27 /// SNORD28 /// SNORD29 /// SNORD31 / Fold change vs veh, SNHG1 /// SNORD22 /// SNORD25 /// SNORD26 /// SNORD27 /// SNORD28 /// SNORD29 /// SNORD31 / Fold change (Aza/veh), C12orf56 (ProbeSet 11735607_a_at) / Fold change (ACY-1035/veh), C12orf56 (ProbeSet 11735607_a_at) / Fold change (Aza/veh), FGFR1OP (ProbeSet 11751329_s_at) / Fold change (ACY-1035/veh), FGFR1OP (ProbeSet 11751329_s_at) / Fold change (Aza/veh), VPS36 (ProbeSet 11739960_a_at) / Fold change (ACY-1035/veh), VPS36 (ProbeSet 11739960_a_at) / RFU SYPL1 (11715823_x_at) / Fold change /veh SYPL1 (11715823_x_at) / RFU IGFBP7 (11715501_s_at) / Fold change /veh IGFBP7 (11715501_s_at) / RFU REEP3 (11722064_at) / Fold change /veh REEP3 (11722064_at) / RFU IGLL1 (11728026_x_at) / Fold change /veh IGLL1 (11728026_x_at): dose or concentration left out as unconfirmed
Conditions: ProbeSet 11728314_at; LIST B

SMILES: Nc1ccc(-c2cccs2)cc1NC(=O)c1ccc2c(c1)cc(C1CC1)n2CCN1CCOCC1 [ACY-1035]
- RFU, ZNF148: 188.07 RFU
